# Test system: batrachotoxin (BTX) binding site (binding site 2) of the sodium channel
# Test: Bond test on the sodium channel, binding site 2 (BTX bond), [3H]-batrachotoxinin A20 α-benzoate displacement
# Details: rat cerebrocortex synaptosomes
row,Compound,"BTX bond, 10 μM, % inhibition"
1,"O=C(C1=NOC2(CCN(S(=O)(=O)c3cc(Cl)ccc3Cl)CC2)C1)N(CCc1ccccc1)Cc1ccccc1 [Example 98, 8-(2,5-dichloro-benzenesulphonyl)-1-oxa-2,8-diaza-spiro[4,5]dec-2-ene-3-carboxylic acid benzyl-phenethyl-amide]",56%
2,"N#CCCN(Cc1cccnc1)C(=O)C1=NOC2(CCN(S(=O)(=O)c3cc(Cl)ccc3Cl)CC2)C1 [Example 99, 8-(2,5-dichloro-benzenesulphonyl)-1-oxa-2,8-diaza-spiro[4,5]dec-2-ene-3-carboxylic acid (2-cyano-ethyl)-pyridin-3-ylmethyl-amide]",50%
3,"O=C(NCc1ccccc1)C1=NOC2(CCN(C(=O)c3ccncc3)CC2)C1 [Example 102, 8-(pyridine-4-carbonyl)-1-oxa-2,8-diaza-spiro[4,5]dec-2-ene-3-carboxylic acid benzylamide]",43%
4,"C=C(C)CN(CC)C(=O)C1=NOC2(CCN(S(=O)(=O)c3ccc(OC(F)(F)F)cc3)CC2)C1 [Example 103, 8-(4-trifluoromethoxy-benzenesulphonyl)-1-oxa-2,8-diaza-spiro[4,5]dec-2-ene-3carboxylic acid ethyl-(2-methyl-allyl)-amide]",53%
5,O=C(NCc1cccs1)C1=NOC2(CCN(C(=O)C=Cc3ccccc3)CC2)C1 [Example 106],62%
6,"O=C(NCC1CC1)C1=NOC2(CCN(C(=O)c3ccc(SC(F)(F)F)cc3)CC2)C1 [Example 108, 8-(4-trifluoromethylsulphanyl-benzoyl)-1-oxa-2,8-diaza-spiro[4,5]dec-2-ene-3-carboxylic acid cyclopropylmethyl-amide]",43%
7,"CCSc1ncccc1C(=O)N1CCC2(CC1)CC(C(=O)NCc1ccccc1)=NO2 [Example 115, 8-(2-ethylsulphanyl-pyridine-3-carbonyl)-1-oxa-2,8-diaza-spiro[4,5]dec-2-ene-3-carboxylic acid benzylamide]",48%
8,O=C(C1=NOC2(CCN(S(=O)(=O)c3cccc(C(F)(F)F)c3)CC2)C1)N1CCN(c2cc(C(F)(F)F)ccn2)CC1 [Example 119],72%
9,"COc1cccc(CCNC(=O)C2=NOC3(CCN(S(=O)(=O)c4ccc(F)cc4)CC3)C2)c1 [Example 124, 8-(4-fluoro-benzenesulphonyl)-1-oxa-2,8-diaza-spiro[4,5]dec-2-ene-3-carboxylic acid [2-(3-methoxy-phenyl)-ethyl]-amide]",54%
10,"Cc1oc(C(C)(C)C)cc1C(=O)N1CCC2(CC1)CC(C(=O)NC1CCCC1)=NO2 [Example 126, 8-(5-tert-butyl-2-methyl-furan-3-carbonyl)-1-oxa-2,8-diaza-spiro[4,5]dec-2-ene-3-carboxylic acid cyclopentylamide]",56%
11,"O=C(NCc1cccs1)C1=NOC2(CCN(S(=O)(=O)c3ccc(Cl)cc3)CC2)C1 [Example 127, 8-(4-chloro-benzenesulphonyl)-1-oxa-2,8-diaza-spiro[4,5]dec-2-ene-3-carboxylic acid (thiophen-2-ylmethyl)-amide]",70%
12,"Cc1ccccc1N1CCN(C(=O)C2=NOC3(CCN(S(=O)(=O)Cc4ccccc4)CC3)C2)CC1 [Example 133, (8-phenylmethanesulphonyl-1-oxa-2,8-diaza-spiro[4,5]dec-2-en-3-yl)-(4-o-tolyl-piperazin-l-yl)-methanone]",47%
13,"O=C(NCc1cccs1)C1=NOC2(CCN(C(=O)c3ccc(SC(F)(F)F)cc3)CC2)C1 [Example 135, 8-(4-trifluoromethylsulphanyl-benzoyl)-1-oxa-2,8-diaza-spiro[4,5]dec-2-ene-3-carboxylic acid (thiophen-2-ylmethyl)-amide]",85%
14,"O=C(NCc1ccccc1)C1=NOC2(CCN(S(=O)(=O)c3cccs3)CC2)C1 [Example 136, 8-(thiophene-2-sulphonyl)-1-oxa-2,8-diaza-spiro[4,5]dec-2-ene-3-carboxylic acid benzylamide]",44%
15,"CC(NC(=O)C1=NOC2(CCN(S(=O)(=O)c3ccc(Cl)s3)CC2)C1)c1cccc2c1OCCO2 (centres unmarked) [Example 140, 8-(5-chloro-thiophene-2-sulphonyl)-1-oxa-2,8-diaza-spiro[4,5]dec-2-ene-3-carboxylic acid [1-(2,3-dihydro-benzo[1,4]dioxin-5-yl)-ethyl]-amide]",60%
16,O=C(NCc1cccs1)C1=NOC2(CCN(C(=O)c3ccc(Br)cc3)CC2)C1 [Example 141],61%
17,"CN(C)S(=O)(=O)N1CCC2(CC1)CC(C(=O)N1CCN(C3CCCCCC3)CC1)=NO2 [Example 144, 3-(4-cycloheptyl-piperazine-1-carbonyl)-1-oxa-2,8-diaza-spiro[4,5]dec-2-ene-8 sulphonic acid dimethylamide]",53%

row,Compound,"BTX bond, 10 μM, % inhibition"
1,"O=C(NCc1cccs1)C1=NOC2(CCN(C(=O)c3cccc(Cl)c3F)CC2)C1 [Example 146, 8-(3-chloro-2-fluorobenzoyl)-1-oxa-2,8-diaza-spiro[4,5]dec-2-ene-3-carboxylic acid (thiophen-2-ylmethyl)-amide]",67%
2,"CC(Oc1ccccc1)C(=O)N1CCC2(CC1)CC(C(=O)NCc1ccccc1)=NO2 (centres unmarked) [Example 149, 8-(2-phenoxy-propionyl)-1-oxa-2,8-diaza-spiro[4,5]dec-2-ene-3-carboxylic acid benzylamide]",40%
3,"Cc1ccc(F)cc1S(=O)(=O)N1CCC2(CC1)CC(C(=O)NCc1cccs1)=NO2 [Example 150, 8-(5-fluoro-2-methyl-benzenesulphonyl)-1-oxa-2,8-diaza-spiro[4,5]dec-2-ene-3-carboxylic acid (thiophen-2-ylmethyl)-amide]",86%
4,"O=C(NCc1cccs1)C1=NOC2(CCN(C(=O)c3ccccc3Cl)CC2)C1 [Example 152, 8-(2-chloro-benzoyl)-1-oxa-2,8-diaza-spiro[4,5]dec-2-ene-3-carboxylic acid (thiophen-2-ylmethyl)-amide]",56%
5,"O=C(NC1CCCC1)C1=NOC2(CCN(C(=O)c3cccnc3Oc3ccccc3)CC2)C1 [Example 153, 8-(2-phenoxy-pyridine-3-carbonyl)-1-oxa-2,8-diaza-spiro[4,5]dec-2-ene-3-carboxylic acid cyclopentylamide]",41%
6,"CCOC(=O)C1CCCCN1C(=O)C1=NOC2(CCN(S(=O)(=O)c3ccc(Cl)s3)CC2)C1 (centres unmarked) [Example 155, 1-[8-(5-chloro-thiophene-2-sulphonyl)-1-oxa-2,8-diaza-spiro[4,5]dec-2-ene-3-carbonyl]-piperidine-2-carboxylic acid ethyl ester]",48%
7,"O=C(NCc1cccs1)C1=NOC2(CCN(S(=O)(=O)c3ccccc3Cl)CC2)C1 [Example 156, 8-(2-chloro-benzenesulphonyl)-1-oxa-2,8-diaza-spiro[4,5]dec-2-ene-3-carboxylic acid (thiophen-2-ylmethyl)-amide]",70%
8,COc1ccc(OC)c(CN(Cc2ccco2)C(=O)C2=NOC3(CCN(S(=O)(=O)c4ccc(F)cc4)CC3)C2)c1 [Example 160],75%
9,"CN(C)S(=O)(=O)N1CCC2(CC1)CC(C(=O)NC1CCCC1OCc1ccccc1)=NO2 (centres unmarked) [Example 163, 8-dimethylsulphamoyl-1-oxa-2,8-diaza-spiro[4,5]dec-2-ene-3-acarboxylic cid (2-benzyloxy-cyclopentyl)-amide]",40%
10,"COc1ccc(S(=O)(=O)N2CCC3(CC2)CC(C(=O)NC(C)Cc2ccc(Cl)cc2)=NO3)cc1 (centres unmarked) [Example 164, 8-(4-methoxy-benzenesulphonyl)-1-oxa-2,8-diaza-spiro[4,5]dec-2-ene-3-carboxylic acid [2-(4-chloro-phenyl)-1-methyl-ethyl]-amide]",52%
11,"O=C(NCc1ccccc1)C1=NOC2(CCN(C(=O)COc3cccc(Cl)c3)CC2)C1 [Example 166, 8-[2-(3-chloro-phenoxy)-acetyl]-1-oxa-2,8-diaza-spiro[4,5]dec-2-ene-3-carboxylic acid benzylamide]",58%
12,"CC(Cc1ccc(Cl)cc1)NC(=O)C1=NOC2(CCN(S(=O)(=O)c3ccc(Cl)s3)CC2)C1 (centres unmarked) [Example 168, 8-(5-chloro-thiophene-2-sulphonyl)-1-oxa-2,8-diaza-spiro[4,5]dec-2-ene-3-carboxylic acid [2-(4-chloro-phenyl)-1-methyl-ethyl]-amide]",69%
13,"Cc1ccc(F)c(C(=O)N2CCC3(CC2)CC(C(=O)NCc2cccs2)=NO3)c1F [Example 170, 8-(2,6-difluoro-3-methyl-benzoyl)-1-oxa-2,8-diaza-spiro[4,5]dec-2-ene-3-carboxylic acid (thiophen-2-ylmethyl)-amide]",59%
14,"O=C(NCc1ccccc1)C1=NOC2(CCN(C(=O)COCc3ccccc3)CC2)C1 [Example 171, 8-(2-benzyloxy-acetyl)-1-oxa-2,8-diaza-spiro[4,5]dec-2-ene-3-carboxylic acid benzylamide]",44%
15,"O=C(Nc1ccccc1)C1=NOC2(CCN(C(=O)c3cccc(Cl)c3Cl)CC2)C1 [Example 172, 8-(2,3-dichloro-benzoyl)-1-oxa-2,8-diaza-spiro[4,5]dec-2-ene-3-carboxylic acid phenylamide]",60%
16,"COc1ccc(Br)cc1S(=O)(=O)N1CCC2(CC1)CC(C(=O)NC1CCCC1)=NO2 [Example 173, 8-(5-bromo-2-methoxy-benzenesulphonyl)-1-oxa-2,8-diaza-spiro[4,5]dec-2-ene-3-carboxylic acid cyclopentylamide]",62%

# Same assay, conditions: rat cerebrocortex synaptosomes, 10 µM
row,Compound,"BTX bond, 10 μM, % inhibition"
1,"COc1ccc(S(=O)(=O)N2CCC3(CC2)CC(C(=O)NC2CCCC2OCc2ccccc2)=NO3)cc1 (centres unmarked) [Example 121, 8-(4-methoxy-benzenesulphonyl)-1-oxa-2,8-diaza-spiro[4,5]dec-2-ene-3-carboxylic acid (2-benzyloxy-cyclopentyl)-amide]",42%
2,"COc1ccc(S(=O)(=O)N2CCC3(CC2)CC(C(=O)NC2CCCC2OCc2ccccc2)=NO3)cc1 (centres unmarked) [Example 169, 8-(4-methoxy-benzenesulphonyl)-1-oxa-2,8-diaza-spiro[4,5]dec-2-ene-3-carboxylic acid (2-benzyloxy-cyclopentyl)-amide]",48%

# From US8557796B2, “Substituted 1-oxa-2,8-diaza-spiro [4,5] dec-2-ene derivatives and related treatment methods” (Gruenenthal GmbH, priority 2001, dated 2013)
